The nature of data set [1]: Solubility in aqueous solvent. Type of data set: physicochemical. As to conditions: 25° C. The procedure: Experiment 4: Solubility in Aqueous Solvent The solubility in an aqueous solvent of the present compound was measured, and the results as shown in Table 4 were obtained. The pH value in Table 4 is a pH value of a solution of the present compound in distilled water.

A further data set has as its system Std:ddy mice. The class given is in vivo. As to conditions: intravenous administration 300 mg/kg, 24 hours after administration. An excerpt:
Experiment 3: Acute Toxicity Test in Mice
Twenty-four hours after the administration, the animals were observed if dead or alive.
*: Number of survived animals/number of tested animals

The target of data set [2] is T1, Human neutrophilic elastase (Homo sapiens, UniProt P08246).
T1 construct: purchased Sigma
T1 sequence (P08246 30-267): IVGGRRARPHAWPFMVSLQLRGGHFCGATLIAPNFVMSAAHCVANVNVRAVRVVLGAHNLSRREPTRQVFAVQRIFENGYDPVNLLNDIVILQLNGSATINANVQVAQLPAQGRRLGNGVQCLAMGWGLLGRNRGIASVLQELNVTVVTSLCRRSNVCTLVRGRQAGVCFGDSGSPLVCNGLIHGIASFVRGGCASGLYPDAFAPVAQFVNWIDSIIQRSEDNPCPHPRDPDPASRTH
Kind of data set: Human neutrophilic elastase inhibitory activity in vitro (fluorogenic substrate). Type of data set: biochemical. As to conditions: 37° C., pH 7.5. The procedure: Experiment 1: Human Neutrophilic Elastase Inhibitory Activity
In the present experiment, the inhibitory activity of the present invention against human neutrophilic elastase was studied in vitro.
The resulting solution (210 μl) was mixed with a 10^−8-10^−5 M solution of the present compound (40 μl), and the mixture was pre-incubated at 37° C. for 6 minutes. To this solution, 4 mM succinyl-alanyl-prolyl-alanine 4-methyl-coumaryl-7-amide (substrate solution, Peptide Institute Inc.) (50 μl) and distilled water (100 μl) were added, and the mixture was further reacted at 37° C. for 20 minutes. The concentration of the 7-amino-4-methylcoumarine thus obtained was measured fluorimetrically by monitoring at an excitation wave length of 380 nm and a fluorescent wave length of 460 nm.
The above “Bri j-35” means polyoxyethylene (23) lauryl ether, and the “HEPES” means N-(2-hydroxyethyl)piperazine-N′-(2-ethane-sulfonic acid).
In the following equation, A means the intensity of fluorescence when a present compound is added, and B means the intensity of fluorescence when a present compound is not added.
Inhibitory Rate (%)=(1−A/B)×100

Data set [3] has as its system pulmonary hemorrhage induced by human neutrophilic elastase. Kind of data set: Inhibitory activity on pulmonary hemorrhage induced by human neutrophilic elastase in hamsters. The conditions noted are these: hamster.
Experimental: When human neutrophilic elastase is administered intratracheally to a hamster, the hemorrhage is induced in the lung. Hemoglobin is detected in the broncho-alveolar lavage fluid, which is obtained by washing the lung via bronchi at a fixed period after the elastase administration. In order to examine how much this hemorrhage can be inhibited by the present compound, this experiment was carried out by measuring the concentration of this hemoglobin.
Hamsters (male Syrian strain, 8-10 weeks old) were grouped into the following three groups (5 animals per group), and the following treatment was carried out on each group.
(A) Vehicle-Treated Control Group (Non-Treatment Group):
The result of the measurement was counted as A.
(B) Human Neutrophilic Elastase-Treated Group (Without the Present Compound):
Human neutrophilc elastase (25 units, manufactured by Elastin Products, Inc.) was dissolved in physiological saline solution (0.2 ml), and the solution thus obtained was administered to the hamsters at the bronchial tube to induce the pulmonary hemorrhage. One hour after the administration of elastase, the concentration of hemoglobin in the broncho-alveolar lavage fluid was measured in the same manner as in Group (A). The result of the measurement was counted as B.
(C) Human Neutrophilic Elastase-Treated Group (with the Present Compound):
A fixed amount of the present compound was administered to the hamsters in the form of a phosphate-buffered saline solution (pH 7.4) in the manner as described below. Then, human neutrophilic elastase was administered to the hamsters in the same manner as the above. One hour after the administration of elastase, the concentration of hemoglobin in the washing of the broncho-alveolar lavage was measured in the same manner as in Group (A). The result of the measurement was counted as C.
Administration Method of the Present Compound:
The administration of the present compound to the hamsters was carried out by two kinds of methods. One of them is a method of intravenous bolus-administration of the solution containing the present compound 5 minutes prior to the elastase administration. Another method is a method of intravenous infusion of the solution containing the present compound for a period of 70 minutes beginning at 10 minutes prior to the elastase administration.
Where [4] appears, read: distilled water, pH of the solution given beside each value, read-out: Solubility, Water.
Setting [5] is: aqueous buffer, 0.1 M phosphate buffer pH 7.4, read-out: Solubility, 0.1 M Phosphate buffer (pH 7.4).
[6] abbreviates: intravenous bolus administration 3 mg/kg, 5 minutes prior to elastase.
Setting [7] is: intravenous bolus administration 10 mg/kg, 5 minutes prior to elastase.
[8] abbreviates: intravenous infusion 1 mg/kg/hr for 70 minutes.
The mark [9] stands for this setting: intravenous infusion 3 mg/kg/hr for 70 minutes.
Setting [10] is: intravenous infusion 10 mg/kg/hr for 70 minutes.

pIC50: −log10 of the molar value. Values after ≈ are worked out from the molar mass of the structure shown. Read-outs that look alike come from different tables or passages of the source.

By solubility is commonly meant the concentration that dissolves in the medium under given conditions. The term pIC50 denotes the negative decadic logarithm of the IC50, by convention in mol/L. Low readings indicate a large IC50, high ones a small IC50.

Turning to `CC(C)[C@H](NC(=O)CN1CCN(CC(=O)O)C1=O)C(=O)N1CCC[C@H]1C(=O)N[C@H](C(=O)C(F)(F)F)C(C)C` [I-b-1, 2-(3-carboxymethyl-2-oxo-1-imidazolidinyl)acetyl-L-valyl-N-[(1S)-3,3,3-trifluoro-1-isopropyl-2-oxopropyl]-L-prolinamide], the solubility in data set [1] (setting [4]) and in data set [1] (setting [5]) was greater than 1000 mg/mL in each case. Also, in the data set with Std:ddy mice, the “Livability (number of survived animals/number of tested animals)” value is recorded as 6/6.

With `CC(C)[C@H](NC(=O)CN1C(=O)CN(CC(=O)O)C1=O)C(=O)N1CCC[C@H]1C(=O)N[C@H](C(=O)C(F)(F)F)C(C)C` [I-b-7, 2-(3-carboxymethyl-2,5-dioxo-1-imidazolidinyl)acetyl-L-valyl-N-[(1S)-3,3,3-trifluoro-1-isopropyl-2-oxopropyl]-L-prolinamide], the pIC50 in data set [2] was 7.09. Moreover, the Hemorrhage inhibitory rate in data set [3] (setting [6]) stood at 50%; in data set [3] (setting [7]), 64%; in data set [3] (setting [8]) it was 51%; in data set [3] (setting [9]) it was 53%; in data set [3] (setting [10]), 72%.

Consider `CC(C)[C@H](NC(=O)[C@@H]1CCCN1C(=O)[C@@H](NC(=O)Cn1ccc(=O)n(CC(=O)O)c1=O)C(C)C)C(=O)c1nc2ccccc2o1` [I-b-2, 2-(3-carboxymethyl-2,4-dioxo-1-pyrimidinyl)acetyl-L-valyl-N-[(1S)-2-(2-benzoxazolyl)-1-isopropyl-2-oxoethyl]-L-prolinamide], for which the solubility in data set [1] (setting [4]) was 5 mg/mL (≈ 8 mM); in data set [1] (setting [5]), greater than 100 mg/mL. For the same compound, the “Livability (number of survived animals/number of tested animals)” value in the data set on Std:ddy mice is reported as 6/6.

In the case of `CC(C)[C@H](NC(=O)[C@@H]1CCCN1C(=O)[C@@H](NC(=O)Cn1ccc(=O)n(CC(=O)O)c1=O)C(C)C)C(=O)C(=O)NCc1ccccc1` [I-b-3, 2-(3-carboxymethyl-2,4-dioxo-1-pyrimidinyl)acetyl-L-valyl-N-[(1S)-3-benzylamino-1-isopropyl-2,3-dioxopropyl]-L-prolinamide], the solubility in data set [1] (setting [4]) is 8.7 mg/mL (≈ 13.6 mM); in data set [1] (setting [5]), greater than 100 mg/mL. For the same compound, the “Livability (number of survived animals/number of tested animals)” value in the data set with Std:ddy mice is listed as 6/6.

Regarding `CC(C)[C@H](NC(=O)[C@@H]1CCCN1C(=O)[C@@H](NC(=O)CC(=O)N1CCN(CC(=O)O)C(=O)C1)C(C)C)C(=O)c1nc2ccccc2o1` [I-b-10], the pIC50 in data set [2] was 7.35. Moreover, the Hemorrhage inhibitory rate came to 32% in data set [3] (setting [6]); 76% in data set [3] (setting [7]); 52% in data set [3] (setting [8]); 69% in data set [3] (setting [9]); 92% in data set [3] (setting [10]).

With `CC(C)(C)C(=O)Oc1ccc(S(=O)(=O)Nc2ccccc2C(=O)NCC(=O)O)cc1` [Control (a), reference compound], the solubility in data set [1] (setting [4]) was 0.012 mg/mL (≈ 0.0276 mM); in data set [1] (setting [5]), roughly 20 mg/mL (≈ 46 mM). Moreover, the Hemorrhage inhibitory rate in data set [3] (intravenous bolus administration 100 mg/kg (control dose row)) came out at 74%; in data set [3] (intravenous infusion 10 mg/kg/hr (control dose row)) it was 18%; in data set [3] (intravenous infusion 100 mg/kg/hr (control dose row)), 60%.
